≈ marks a conversion by molar mass, not a printed value.
Columns and labels:
[1] = test system: Staph. aureus 50,774; assay: Systemic infection in mice; assay type: in vivo; conditions: Staphylococcus aureus, po, 336 h
Method: (§1) The activity of the compounds according to the invention against systemic infections in mice, caused by Staphylococcus 50,774, Streptococcus pyogenes A 65, Pseudomonas aeruginosa No. 12 and Escherichia coli P 5101, has been studied.
(§2) The infections were set up by intraperitoneal injection of a suspension of the bacterial culture corresponding to the germ studied. The products were administered orally at the time of injection, and 6 hours later. […] Aureus and for 7 days for the other germs.
(§3) Oxolinic acid was used as the reference substance.

[2] = test system: Strept. pyogenes A. 65; assay: Systemic infection in mice; assay type: in vivo; conditions: Streptococcus pyogenes, A.65, po, 168 h
Method: as §1, §2, §3

[3] = test system: Escherichia coli P 5101; assay: Systemic infection in mice; assay type: in vivo; conditions: P5101, po, 168 h
Method: as §1, §2, §3

[4] = test system: Pseudomonas aeruginosa No. 12; assay: Systemic infection in mice; assay type: in vivo; conditions: NO.12, po, 168 h
Method: as §1, §2, §3

[5] = test system: Salm. typhi 0901; assay: microbe, parasite or virus in culture; assay type: cell-based; conditions: Salmonella enterica, 18 h; Table III; Salm. typhi 0901
Method: (§4) After sterilisation at 120° C., the pH was 6.8.
(§5) The minimum inhibitory concentrations (M.I.C.) were determined by dilution of the test compounds in this mixture, the concentration ranging from 0.05 to 100 μg/cm^3 in a geometric progression with a factor of 2.
(§6) The inoculation of the dishes was carried out by means of a multiple inoculator with 10^-3 dilutions of 18 hour old broth cultures.
(§7) The dishes were placed in an oven at 37° C. and the readings were taken afer an incubation time of 18 hours. The M.I.C. was taken as the lowest concentration which inhibited a culture.

[6] = test system: B. subtilis; assay: M.I.C. in vitro, nutrient agar dilution; assay type: cell-based; conditions: Bacillus subtilis, 18 h; Table III; B. Subtilis; read-out: M.I.C.
Method: as §4, §5, §6, §7

[7] = test system: Esch. coli 54.127 O.M.S.; assay: M.I.C. in vitro, nutrient agar dilution; assay type: cell-based; conditions: Escherichia coli, 18 h; Table III; Esch. coli 54.127 O.M.S.; read-out: M.I.C.
Method: as §4, §5, §6, §7

[8] = test system: Providentia 0223; assay: M.I.C. in vitro, nutrient agar dilution; assay type: cell-based; conditions: 18 h; Table III; Providentia 0223; read-out: M.I.C.
Method: as §4, §5, §6, §7

[9] = test system: Esch. coli 95 I.S.M.; assay: M.I.C. in vitro, nutrient agar dilution; assay type: cell-based; conditions: Escherichia coli, 18 h; Table III; Esch. coli 95 I.S.M.; read-out: M.I.C.
Method: as §4, §5, §6, §7

[10] = test system: Serratia; assay: M.I.C. in vitro, nutrient agar dilution; assay type: cell-based; conditions: 18 h, Table III, read-out: M.I.C.
Method: as §4, §5, §6, §7

[11] = test system: S. enteritidis Danysz; assay: M.I.C. in vitro, nutrient agar dilution; assay type: cell-based; conditions: Salmonella enterica, 18 h; Table III; S. enteritidis Danysz; read-out: M.I.C.
Method: as §4, §5, §6, §7

[12] = test system: Strepto D.M. 19; assay: M.I.C. in vitro, nutrient agar dilution; assay type: cell-based; conditions: 18 h; Table III; Strepto D.M. 19; read-out: M.I.C.
Method: as §4, §5, §6, §7

[13] = test system: Arizona 6.211; assay: M.I.C. in vitro, nutrient agar dilution; assay type: cell-based; conditions: 18 h; Table III; Arizona 6.211; read-out: M.I.C.
Method: as §4, §5, §6, §7

[14] = test system: Strepto A 561; assay: M.I.C. in vitro, nutrient agar dilution; assay type: cell-based; conditions: 18 h; Table III; Strepto A 561
Method: as §4, §5, §6, §7

[15] = test system: S. oranienburg 1066; assay: M.I.C. in vitro, nutrient agar dilution; assay type: cell-based; conditions: Salmonella enterica, 18 h; Table III; S. oranienburg 1066; read-out: M.I.C.
Method: as §4, §5, §6, §7

[16] = test system: Bord. bronchis. 4.617; assay: M.I.C. in vitro, nutrient agar dilution; assay type: cell-based; conditions: 18 h; Table III; Bord. bronchis. 4.617; read-out: M.I.C.
Method: as §4, §5, §6, §7

[17] = test system: Klebs. pneum. 10.031; assay: M.I.C. in vitro, nutrient agar dilution; assay type: cell-based; conditions: 18 h; Table III; Klebs. pneum. 10.031; read-out: M.I.C.
Method: as §4, §5, §6, §7

[18] = test system: Staph. 209 P; assay: M.I.C. in vitro, nutrient agar dilution; assay type: cell-based; conditions: 18 h; Table III; Staph. 209 P; read-out: M.I.C.
Method: as §4, §5, §6, §7

[19] = test system: Ps. aeruginosa A.22; assay: M.I.C. in vitro, nutrient agar dilution; assay type: cell-based; conditions: Pseudomonas aeruginosa, 18 h; Table III; Ps. aeruginosa A.22; read-out: M.I.C.
Method: as §4, §5, §6, §7

[20] = test system: Esch. coli 111 B4; assay: M.I.C. in vitro, nutrient agar dilution; assay type: cell-based; conditions: Escherichia coli, 18 h; Table III; Esch. coli 111 B4
Method: as §4, §5, §6, §7

[21] = test system: Sh. sonnei I.P.S.; assay: M.I.C. in vitro, nutrient agar dilution; assay type: cell-based; conditions: Shigella sonnei, 18 h; Table III; Sh. sonnei I.P.S.; read-out: M.I.C.
Method: as §4, §5, §6, §7

[22] = test system: Pr. mirabilis Nig; assay: M.I.C. in vitro, nutrient agar dilution; assay type: cell-based; conditions: Proteus mirabilis, 18 h; Table III; Pr. mirabilis Nig; read-out: M.I.C.
Method: as §4, §5, §6, §7

[23] = test system: Pr. vulgaris 12-53; assay: M.I.C. in vitro, nutrient agar dilution; assay type: cell-based; conditions: Proteus vulgaris, 1253, 18 h; Table III; Pr. vulgaris 12-53; read-out: M.I.C.
Method: as §4, §5, §6, §7

[24] = test system: Ps. aeruginosa 72.345; assay: M.I.C. in vitro, nutrient agar dilution; assay type: cell-based; conditions: Pseudomonas aeruginosa, 18 h; Table III; Pd. aeruginosa 72.345; read-out: M.I.C.
Method: as §4, §5, §6, §7

[25] = test system: Staph. 9.144; assay: M.I.C. in vitro, nutrient agar dilution; assay type: cell-based; conditions: 18 h; Table III; Staph. 9.144; read-out: M.I.C.
Method: as §4, §5, §6, §7

[26] = test system: Pr. morganii A.236; assay: M.I.C. in vitro, nutrient agar dilution; assay type: cell-based; conditions: Morganella morganii, 18 h; Table III; Pr. morganii A. 236; read-out: M.I.C.
Method: as §4, §5, §6, §7

Compound	MIC [5]	MIC [6]	MIC [7]	MIC [8]	MIC [9]	MIC [10]	MIC [11]	MIC [12]	MIC [13]	MIC [14]	MIC [15]	MIC [16]	MIC [17]	MIC [18]	MIC [19]	MIC [20]	MIC [21]	MIC [22]	MIC [23]	MIC [24]	further results
CCn1cc(C(=O)O)c(=O)c2cc(F)c(N3CCN(C)CC3)cc21 [Example 20, 1-Ethyl-6-fluoro-7-(4-methylpiperazinyl)-4-oxo-1,4-dihydro-quinoline-3-carboxylic acid]																					ED50 [1]: 2.9 mg/kg; ED90 [1]: 9.3 mg/kg; ED50 [2]: 65 mg/kg; ED90 [2]: 103 mg/kg; ED50 [3]: 1.8 mg/kg; ED90 [3]: 2.8 mg/kg; ED50 [4]: 7.8 mg/kg; ED90 [4]: 11.5 mg/kg
C=CCn1cc(C(=O)O)c(=O)c2cc(F)c(N3CCN(C)CC3)cc21 [Example 34, 1-Allyl-6-fluoro-7-(4-methylpiperazinyl)-4-oxo-1,4-dihydro-quinoline-3-carboxylic acid]	0.1 µg/mL (≈ 0.29 µM)	0.4 µg/mL (≈ 1.16 µM)	0.4 µg/mL (≈ 1.16 µM)	12.5 µg/mL (≈ 36.2 µM)	0.4 µg/mL (≈ 1.16 µM)	0.05 to 0.4 µg/mL (≈ 0.145 to 1.16 µM)	0.4 to 0.8 µg/mL (≈ 1.16 to 2.32 µM)	6.2 to 12.5 µg/mL (≈ 18 to 36.2 µM)	0.4 µg/mL (≈ 1.16 µM)	50 µg/mL (≈ 145 µM)	12.5 µg/mL (≈ 36.2 µM)	0.2 µg/mL (≈ 0.579 µM)	0.1 µg/mL (≈ 0.29 µM)	0.8 µg/mL (≈ 2.32 µM)	3.1 µg/mL (≈ 8.98 µM)	0.4 µg/mL (≈ 1.16 µM)	0.2 µg/mL (≈ 0.579 µM)	0.8 to 1.6 µg/mL (≈ 2.32 to 4.63 µM)	0.2 µg/mL (≈ 0.579 µM)	3.1 µg/mL (≈ 8.98 µM)	MIC [25]: 1.6 µg/mL (≈ 4.63 µM); MIC [26]: 0.05 to 0.2 µg/mL (≈ 0.145 to 0.579 µM)
C=Cn1cc(C(=O)O)c(=O)c2cc(F)c(N3CCN(C)CC3)cc21 [Example 41, 6-Fluoro-7-(4-methyl-piperazinyl)-4-oxo-1-vinyl-1,4-dihydro-quinoline-3-carboxylic acid]	0.1 µg/mL (≈ 0.302 µM)	0.1 µg/mL (≈ 0.302 µM)	0.1 µg/mL (≈ 0.302 µM)	0.8 µg/mL (≈ 2.41 µM)	0.1 µg/mL (≈ 0.302 µM)	0.4 µg/mL (≈ 1.21 µM)	0.1 µg/mL (≈ 0.302 µM)	3.1 µg/mL (≈ 9.36 µM)	0.1 µg/mL (≈ 0.302 µM)	12.5 µg/mL (≈ 37.7 µM)	1.6 µg/mL (≈ 4.83 µM)	1.6 µg/mL (≈ 4.83 µM)	0.1 µg/mL (≈ 0.302 µM)	0.1 µg/mL (≈ 0.302 µM)	0.4 µg/mL (≈ 1.21 µM)	0.1 µg/mL (≈ 0.302 µM)	0.1 µg/mL (≈ 0.302 µM)	0.05 µg/mL (≈ 0.151 µM)	0.05 µg/mL (≈ 0.151 µM)	0.8 µg/mL (≈ 2.41 µM)	MIC [25]: 0.2 µg/mL (≈ 0.604 µM); MIC [26]: 0.05 µg/mL (≈ 0.151 µM)

Source: patent US4292317A, “1,4-Dihydro-quinoline-3-carboxylic acid derivatives, process for their preparation and compositions containing them” (Laboratorie Roger Bellon, priority 1977, dated 1981)
